The OPERA property sets (Mansouri et al. 2018)

SMILES | logP
COC(=O)c1ccc(C)cc1 | 2.7
Cc1nc(N)sc1C(=O)CCN(C)C | 1.47
CSc1ccccc1C(N)=O | 0.71
Oc1c(Br)cccc1Br | 3.36
Cc1cccc(Cl)c1C(=O)O | 2.31
CCc1cccc(OC(C)=O)c1 | 2.45
Cc1cccc(C)c1C(=O)O | 2.21
COC(=O)c1c(Cl)cccc1[N+](=O)[O-] | 2.21
COC(=O)c1ccccc1F | 1.82
COC(=O)c1c(F)cccc1F | 1.96
CC(=O)Oc1c(Cl)cccc1Cl | 2.94
COC(=O)c1cccc([N+](=O)[O-])c1 | 1.89
O=C(O)c1c(F)cccc1F | 1.59
COC(=O)c1ccccc1I | 2.74
NC(=O)c1ccccc1[N+](=O)[O-] | -0.12
COC(=O)c1c(Cl)cccc1Cl | 2.79
COC(=O)c1cccc(Cl)c1 | 2.85

SMILES | logP
COC(=O)c1ccccc1[N+](=O)[O-] | 1.66
CCc1cccc(CC)c1O | 3.03
O=C(O)c1c(Cl)cccc1[N+](=O)[O-] | 1.56
COC(=O)c1c(C)cccc1C | 2.55
COc1cccc(OC(C)=O)c1 | 1.61
N#Cc1ccccc1C(N)=O | 0
COC(=O)c1cccc(C)c1 | 2.77
CCOc1cccc(OC(C)=O)c1 | 2.08
COC(=O)c1c(F)cccc1Cl | 2.42
COC(=O)c1ccc(F)cc1 | 2.28
CCc1cccc(CC)c1OC(C)=O | 3.4
CC(=O)Oc1c(C)cccc1C | 2.32
Cc1cccc(Cl)c1O | 2.8
COC(=O)c1ccccc1OC | 2.04
COC(=O)c1ccc([N+](=O)[O-])cc1 | 1.89
COC(=O)c1ccc(Br)cc1 | 2.95
Oc1c(F)cccc1F | 1.96
